How the values were obtained:
CD93 = target: T1, CD93 (Mus musculus, UniProt O89103); test: Mouse MLL-AF9 compound screening: colony forming capacity of BL6 or CD93-/- GMPs (leukemia stem cells) from AML mice; assay type: cell-based; conditions: GMPs from AML mice cultured overnight with 10 uM and 1 uM compound; colonies counted after 7 days; FIG. 1 and FIG. 2
T1 construct: endogenous in cells; host or cells: FACS-purified GFP+ lin- Sca-1- c-kit(high) CD34+ Fcγ+ GMPs from MLL-AF9 AML mice (BL6; CD93-/- cells as control)
T1 sequence (O89103 23-644): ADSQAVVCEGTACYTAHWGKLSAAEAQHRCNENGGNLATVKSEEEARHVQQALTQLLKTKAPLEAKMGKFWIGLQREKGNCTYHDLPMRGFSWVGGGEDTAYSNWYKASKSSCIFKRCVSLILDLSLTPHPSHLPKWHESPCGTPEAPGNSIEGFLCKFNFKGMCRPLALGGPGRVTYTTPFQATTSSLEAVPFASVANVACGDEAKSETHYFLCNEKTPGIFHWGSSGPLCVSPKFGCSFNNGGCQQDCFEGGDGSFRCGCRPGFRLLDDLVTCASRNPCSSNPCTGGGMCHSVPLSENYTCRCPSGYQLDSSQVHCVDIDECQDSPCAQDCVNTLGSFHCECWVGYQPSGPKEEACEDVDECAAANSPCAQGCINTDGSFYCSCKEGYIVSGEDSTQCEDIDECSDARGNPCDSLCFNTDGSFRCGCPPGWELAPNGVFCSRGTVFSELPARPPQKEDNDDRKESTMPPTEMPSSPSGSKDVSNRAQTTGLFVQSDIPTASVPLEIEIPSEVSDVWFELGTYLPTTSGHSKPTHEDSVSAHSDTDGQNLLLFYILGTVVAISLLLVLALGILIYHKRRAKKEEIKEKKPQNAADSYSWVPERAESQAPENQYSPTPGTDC
Experimental: The colony formation (% of control) is shown on the Y-axis. […] Compounds showing inhibition of CD93, show no or a very low difference in colony formation of CD93−/− and at the same time a low percentage of colony formation of BL6.
For testing the small molecule compounds targeting CD93 on GMPs (leukemia stem cells) colony forming capacity, 10^3 FACS-purified GFP+lin-Sca-1-c-kithighCD34+Fcγ+ GMPs from BL6 or CD93−/− transduced AML mice were cultured overnight in 96-well U-bottom plates (NeoLab) in RPMI medium supplemented with 10% FCS, 1% L-glutamine, 1% penicillin/streptomycin, 100 ng/ml recombinant mouse (rm)-SCF (Miltenyi) and 20 ng/ml rm-TPO (ProSpec), in the presence or absence of 10 uM and 1 uM compound in technical triplicates. Compounds were dissolved in DMSO. The next day, cells were plated in semi-solid methylcellulose in the absence of any compound. Number of colonies was assessed by inverted light microscopy after 7 days.
In this assay, the semi-solid Media used was 1.27% Methylcellulose (1500cp, Sigma), supplemented with 15% FCS, 20% BIT (50 mg/ml BSA in IMDM, 1.44 U/ml rh-insulin [Actrapid; Novo Nordisk], and 250 ng/ml human holo transferrin [Prospec]), 100 μM 2-mercaptoethanol, 100 U/ml penicillin, 100 μg/ml streptomycin, 2 mM L-glutamine, and 50 ng/ml rm-SCF (Miltneyi), 10 ng/ml rm-IL-3 (Miltenyi), 10 ng/ml rm-IL-6 (Miltenyi), and 50 ng/ml rm-Flt3-ligand (ProSpec).

BL6 leukemia stem cells = conditions: murine CML model, BL6 and CD93-/- mice; Riether et al. 2021; cited from earlier work
[1] = tested on: human CML leukemia stem cells; conditions: Riether et al. 2021; cited from earlier work

inhibition profile of CD93 (colony formation, % of control, BL6 vs CD93-/- GMPs) (CD93)	Compound	colony formation of BL6 leukemia stem cells (BL6 leukemia stem cells)	leukemia stem cell numbers and function [1]
good inhibition profiles of CD93	O=C(c1csc(-c2ccccc2)n1)N1CCCN(C2CC2)CC1 [Compound 21560]	–	–
good inhibition profiles of CD93	COc1ccccc1-c1nc(C(=O)N2CCCN(C3CC3)CC2)cs1 [Compound 22394]	–	–
good inhibition profiles of CD93	CN(C)CCN(C)C(=O)c1csc(-c2ccccc2)n1 [Compound 22815]	–	–
good inhibition profiles of CD93	O=C(c1csc(-c2ccccc2)n1)N1CCN2CCC1C2 (centres unmarked) [Compound 22817]	–	–

More lines, now with the values behind:

Compound	inhibition profile of CD93 (colony formation, % of control, BL6 vs CD93-/- GMPs) (CD93)	colony formation of BL6 leukemia stem cells (BL6 leukemia stem cells)	leukemia stem cell numbers and function [1]
O=C(c1nc2ccccc2s1)N1CCCN(C2CC2)CC1 [Compound 22393]	good inhibition profiles of CD93	–	–
O=C(c1ccn(-c2ccccc2)n1)N1CCCN(C2CC2)CC1 [Compound 22742]	good inhibition profiles of CD93	–	–
CCN(CC)CCNC(=O)c1cc(Cl)c(N)cc1OC [metoclopramide]	–	reduced colony formation of BL6 leukemia stem cells	diminished leukemia stem cell numbers and function
